# In patent US11091740B2, “Composition for inducing dedifferentiation into cancer stem cells comprising ribosome-activating inhibitor as active ingredient, cancer organoid culture method and anticancer drug screening platform based thereon” (priority 2016, dated 2021):
# Columns and labels:
# [1] = tested on: Cancer stem cell cultured spheroid; assay: 5-FU response of cancer stem cell cultured spheroid, PI/AnnexinV flow cytometry; type: cell-based; conditions: 5-FU 375 μM for 48 hours
# Protocol: The drug effect close to human physiological activity can be confirmed by monitoring the anticancer drug response of heterogeneous cancer cells containing a plurality of cancer stem cells induced by the exposure of ribosome-inactivating stress. […] Cancer stem cell cultured spheroid were treated with 5-FU (375 μM) for 48 hours and apoptotic cells were quantified by flow cytometry using propidium iodide (PI) and AnnexinV-FITC (1:200) as markers. The number of apoptotic cells positive for both PI and AnnexinV for 5-FU was higher in the control (−) group, but the drug reactivity was better, but those in the general spheroid culture (DMSO) were decreased.
# [2] = tested on: Colorectal cancer cell lines; assay: Cell line-based cancer organoid, CD44 (+) cells by flow cytometry; conditions: RIS-1 10 ng/mL or RIS-2 50 ng/mL pretreated for 6 hours, spheroid, organoid culture 12 days
# Protocol: Colorectal cancer cell lines were pretreated with ribosome-inactivating stress, RIS-1 of 10 ng/mL or RIS-2 of 50 ng/mL for 6 hours to form spheroid. Cancer organoid is formed by using spheroid induced from cancer stem cells increased by the ribosome-inactivating stress. A cancer organoid culture technique was developed from cancer stem cells increased by ribosome-inactivating stress. 100 μl of a culture medium containing 200-400 spheroid cells of about 100 μm in size among the cultured spheroids was mixed with an equal amount of a ice-cold matrigel (BD #35424, USA) and divided as a dome in a 24-well culture dish preheated in the cell incubator. Organoid formation (changes in crypt-villus domain production, morphology and size changes, etc.) is monitored by filling the organoid culture medium (STEMCELLS) so as not to reach the cell-matrigel dome and incubating for 12 days (FIG. 7A). The final cultured organoid is tested by immunohistochemistry and flow cytometry. After washing with ice-cold PBS, the organoid was separated from the matrigel and fixed with 0.1% tritonX-100, 4% PFA and immunostained. E-cadherin, an epithelial cell factor, mucin-2, a goblet cell marker for differentiated intestinal cells and F-actin for confirming cell structure formation are examined to confirm the formation of an intestinal organoid (FIG. 7A). […]
# [3] = tested on: epithelial cancer cells; assay: Single versus repeated exposure to ribosome-inactivating stress, CD44/CD133 flow cytometry; type: cell-based; conditions: for cancer stem cells (CD44 and CD133) after a first temporary exposure: exposed once for 24 hours, spheroid cultured in stem cell medium, sub-cultured three times; for CD44 and CD133 positive stem cell groups in chronic exposure: exposure in each subculture, total of 3 exposures
# Protocol: To reconfirm that ribosome-inactivating stress (RIS1, RIS2) is a key factor for inducing the dedifferentiation of epithelial cancer cells, the cells were exposed to ribosome-inactivating stress once for 24 hours, spheroid cultured in a stein cell culture medium for 6 days. In the experimental groups which sub-cultured in three times; and sub-cultured while exposing to the ribosome-inactivating stress on the optimum medium for cancer stem cell in each subculture (total of 3 exposures), cancer stem cells were compared quantitatively by flow cytometry with CD44 and CD133 as the marker thereof.
# [4] = tested on: colon cancer cell lines; assay: Spheroid culture with ribosome-inactivating stress exposure, CD44/CD133 flow cytometry; type: cell-based; conditions: RIS-1 10 ng/mL or RIS-2 50 ng/mL pretreated for 6 hours, spheroid cultured 6 days, compared with control
# Protocol: Colon cancer cell lines were purchased from ATCC (Manassas, USA), a cell line distribution company. Cells were maintained with RPMI medium supplemented with 10% (v/v) fetal bovine serum (FBS) and 5% mixed antibiotics (50 units/mL penicillin and […] streptomycin) (welgene, Daegu, South Korea) in a 5% CO2-humidified incubator at 37° C. […] First, the cultured spheroid cells were dissociated into single cells by trypsinization, washed with phosphate buffer solution, incubated with FITC-conjugated CD44 (BD pharmingen) and APC-conjugated CD133 (MACS, Miltenyi Biotec) antibodies for 15 min, and then the expression of CD44 and CD133 positive cells was analyzed by flow cytometry (Becton Dickinson FACS Canto Il BD Bioscience, San Jose, Calif., USA).
# [5] = tested on: CMT-93 mouse colorectal cancer cell line; assay: Allograft of RIS-2 pretreated cancer cells, epithelial mesenchyme transition markers by immunohistochemistry; type: in vivo; conditions: cells pretreated with RIS-2 50 ng/mL for 6 hours, subcutaneous in C57BL/6 mice, 5-FU i.p. on day 7, tumors excised 24 h later
# Protocol: Cancer stem cells have been identified as a major cause of cancer progression, metastasis, recurrence, and resistance to anticancer drugs. In order to investigate the in vivo activity of cancer stem cells produced by the exposure to ribosome-inactivating stress, epithelial mesenchyme transition (EMT) phenomenon, which is an in vivo phenotype representing the characteristics of cancer stem cells was examined. The in vivo activity of cancer stem cells was determined by the degree of epithelial mesenchyme transition, which is verified by the decrease of E-cadherin, an epithelial cell marker and the increase of the protein expression of N-cadherin and vimentin, mesenchymal marker. For this purpose, in vivo experiment using allografts of cancer cells was performed. The CMT-93 mouse colorectal cancer cell line was cultured in DMEM (Welgene, Daegu, South Korea) supplemented with 10% (v/v) fetal bovine serum (FBS) and 5% mixed antibiotics (50 units/mL penicillin, […] streptomycin) in a 5% CO2, 37 humidified incubator at 37° C. CMT-93 cells (5×10^6) pretreated with RIS-2 (50 ng/mL) for 6 hours were resuspended with 200 μL of PBS and injected subcutaneously into a 14-week-old male C57BL/6 mice. Seven days later, […] anticancer drug 5-FU was intraperitoneally injected and tumors were excised surgically 24 h later. Solid tumors were obtained by immunohistochemistry using E-cadherin (1:200, BD Science), N-cadherin (1:200, BD Science), vimentin (1:200, Cell signaling) specific antibodies. The excised solid tumors were fixed in 4% paraformaldehyde, embedded in paraffin, and sectioned to prepare slice slide specimens. After dehydration and antibody binding, spatial expression of protein expression in tissues was investigated by 3,3-diaminobenzidine (DAB) substrate reaction and relative expression of DAB versus hematoxylin-positive cells was quantified by a tissue analysis software (Histo Quest, TissueGnotics).
SMILES,number of apoptotic cells positive for both PI and AnnexinV ([1]; control (−) group),number of apoptotic cells positive for both PI and AnnexinV ([1]; general spheroid culture (DMSO)),drug reactivity (apoptotic cells) ([1]; spheroid containing cancer stem cell group induced by ribosome-inactivating stress),CD44 (+) cancer stem cell group in cultured cancer organoid [2],cancer stem cells (CD44 and CD133) after a first temporary exposure [3],CD44 and CD133 positive stem cell groups in chronic exposure [3],CD44 and CD133 positive cells representing cancer stem cell group [4],epithelial cell marker E-cadherin in solid tumors [5],mesenchymal cell marker N-cadherin in solid tumors [5],mesenchymal cell marker vimentin protein in solid tumors [5]
"O=c1[nH]cc(F)c(=O)[nH]1 [5-FU, fluorouracil]",higher,decreased,further reduced,,,,,,,
"COc1ccc(C[C@H]2NC[C@H](O)[C@H]2OC(C)=O)cc1 [RIS-1, anisomycin]",,,,significantly increased,maintained continuously,increased significantly,significantly increased,,,
"CC1=C[C@H]2O[C@@H]3[C@H](O)C[C@](C)([C@@]2(CO)[C@H](O)C1=O)[C@]31CO1 [RIS-2, deoxynivalenol]",,,,significantly increased,maintained continuously,increased significantly,significantly increased,decreased,significantly increased,significantly increased
